This data set deals with GENE-TOX genotoxicity assays, various organisms and cells. The data set is described as follows: GENE-TOX mutagenicity studies. To be noted: for call: Assay Type: In vivo carcinogenicity studies, Assay Code: CCG+.
[1] abbreviates: Species/Cell Type: Drosophila melanogaster, Assay Type: Sex-linked recessive lethal gene mutation, Assay Code: SRL+, Evaluation Type: Evaluation A (Pre-1980).
Where [2] appears, read: Species/Cell Type: Escherichia coli polA (W3119 vs P3478), Assay Type: Rec-assay, DNA effects (bacterial DNA repair), Assay Code: RE1+, Evaluation Type: Evaluation A (Pre-1980).
The mark [3] stands for this setting: Species/Cell Type: Fischer rat embryo (RLV/1706) cells, Assay Type: Cell transformation, viral enhanced, Assay Code: CTR+, Evaluation Type: Evaluation A (Pre-1980).
[4] abbreviates: Species/Cell Type: Hordeum vulgare (barley), Assay Type: Chromosome aberrations, Assay Code: HOC+, Evaluation Type: Evaluation A (Pre-1980).
Where [5] appears, read: Species/Cell Type: Neurospora crassa, Assay Type: Forward gene mutation, Assay Code: NEF+, Evaluation Type: Evaluation A (Pre-1980).
Setting [6] is: Species/Cell Type: Nonhuman, Evaluation Type: Evaluation A (Pre-1980).
[7] abbreviates: Species/Cell Type: Nonhuman, Assay Type: Sister-chromatid exchange (SCE) in vitro, Assay Code: SC2+D, Dose Response: With dose response, Evaluation Type: Evaluation A (Pre-1980).
Setting [8] is: Species/Cell Type: Nonhuman, Assay Type: Sister-chromatid exchange (SCE) in vivo, Assay Code: SC3+D, Dose Response: With dose response, Evaluation Type: Evaluation B (Post-1980).
[9] abbreviates: Species/Cell Type: Saccharomyces cerevisiae, Assay Type: Mitotic recombination or gene conversion, Assay Code: YEC+, Evaluation Type: Evaluation A (Pre-1980).
Setting [10] is: Species/Cell Type: Saccharomyces cerevisiae, Assay Type: Mitotic recombination or gene conversion, Assay Code: YEH+, Evaluation Type: Evaluation A (Pre-1980).
Setting [11] is: Species/Cell Type: Salmonella typhimurium (one or more of the five standard strains: TA98, TA100, TA1535, TA1537, and TA1538), Assay Type: Histidine reverse gene mutation, Ames assay, Assay Code: SAL+, Evaluation Type: Evaluation A (Pre-1980).
The mark [12] stands for this setting: Species/Cell Type: Salmonella typhimurium, Assay Type: Forward and reverse gene mutation, host-mediated assay, Assay Code: HMA+, Evaluation Type: Evaluation A (Pre-1980).
Setting [13] is: Species/Cell Type: Salmonella typhimurium (one or more of the five standard strains: TA98, TA100, TA1535, TA1537, and TA1538), Assay Type: Histidine reverse gene mutation, Ames assay, Assay Code: SALT, Evaluation Type: Evaluation A (Pre-1980).

Structures are written as SMILES. Activity calls are given as the source filed them. How the calls were made is not given here.

On to `C1OC1C1CO1` (stereo not given), for which the mutagenic call is, setting by setting: (Species/Cell Type: Aspergillus nidulans, Assay Type: Forward gene mutation, Assay Code: ASF+, Evaluation Type: Evaluation A (Pre-1980)) “active; positive”; (Species/Cell Type: Aspergillus nidulans, Assay Type: Mitotic recombination, Assay Code: ASG+, Evaluation Type: Evaluation A (Pre-1980)) “active; positive”; under setting [1], “active; positive”; (Species/Cell Type: Drosophila melanogaster, Sex: Male, Assay Type: Heritable translocation test, chromosome aberrations, Assay Code: DHT+, Evaluation Type: Evaluation A (Pre-1980)) “active; positive”; under setting [2], “active; positive”; under setting [3], “active; positive”. For the same molecule, the mutagenic call (Species/Cell Type: Glycine max (soybean), Assay Type: Gene mutation, Assay Code: GLM+, Evaluation Type: Evaluation A (Pre-1980)) was “active; positive”; the mutagenic call under setting [4] is “active; positive”; the mutagenic call (Species/Cell Type: Human lymphocytes, Assay Type: Sister-chromatid exchange (SCE) in vitro, Assay Code: SCL+D, Dose Response: With dose response, Evaluation Type: Evaluation B (Post-1980)) is “active; positive”; the mutagenic call (Species/Cell Type: Human, Assay Type: Sister-chromatid exchange (SCE) in vitro, Assay Code: SC1+D, Dose Response: With dose response, Evaluation Type: Evaluation B (Post-1980)) was “active; positive”; the mutagenic call (Species/Cell Type: Mouse (BALB/c-3T3) cells, Assay Type: Cell transformation, Assay Code: CTB+D, Dose Response: With dose response, Evaluation Type: Evaluation A (Pre-1980)) is “active; positive”; the mutagenic call under setting [5] is “active; positive”. Also, the mutagenic call is “active; positive” (Species/Cell Type: Neurospora crassa, Assay Type: Reverse gene mutation, Assay Code: NER+, Evaluation Type: Evaluation A (Pre-1980)); “active; positive” under setting [7]; “active; positive” under setting [8]; “active; positive” under setting [9]; “active; positive” under setting [10]; “active; positive” (Species/Cell Type: Saccharomyces cerevisiae, Assay Type: Reverse gene mutation, Assay Code: YER+, Evaluation Type: Evaluation A (Pre-1980)). The mutagenic call is “active; positive” under setting [11]; “active; positive” under setting [12]; “active; positive” (Species/Cell Type: Schizosaccharomyces pombe, Assay Type: Reverse gene mutation, Assay Code: YEZ+, Evaluation Type: Evaluation A (Pre-1980)); “active; positive” (Species/Cell Type: Syrian hamster embryo (SHE) cells, Assay Type: Cell transformation, clonal assay, Assay Code: CTC+D, Dose Response: With dose response, Evaluation Type: Evaluation A (Pre-1980)); “active; positive” (Species/Cell Type: Vicia faba, Assay Type: Chromosome aberrations, Assay Code: VIC+D, Dose Response: With dose response, Evaluation Type: Evaluation A (Pre-1980)). The call under setting [6] is “active; positive”.

As to `Cc1cc2c(ccc3ccccc32)c2c1C(=O)CC2`, the mutagenic call under setting [13] is on record as “no conclusion”.

For the molecule `COc1cc2c(c3oc(=O)c4c(c13)CCOC4=O)[C@@H]1CCO[C@@H]1O2`, the mutagenic call is, setting by setting: (Species/Cell Type: Bacillus subtilis (H17 vs M45), Assay Type: Rec-assay, spot test, DNA effects (bacterial DNA repair), Assay Code: REW-, Evaluation Type: Evaluation A (Pre-1980)) “inactive; negative”; (Species/Cell Type: Chinese hamster lung (V79) cells, Assay Type: Forward gene mutation at the HPRT or ouabain locus, Assay Code: V79-*, Activation: With metabolic activation, Evaluation Type: Evaluation A (Pre-1980)) “inactive; negative”; (Species/Cell Type: Human diploid fibroblasts, Assay Type: Unscheduled DNA synthesis (UDS) in vitro, DNA effects, Assay Code: UDH-*, Activation: With metabolic activation, Evaluation Type: Evaluation A (Pre-1980)) “inactive; negative”; (Species/Cell Type: Nonhuman, Assay Type: Sister-chromatid exchange (SCE) in vitro, Assay Code: SC2+D*, Activation: With metabolic activation, Dose Response: With dose response, Evaluation Type: Evaluation B (Post-1980)) “active; positive”; (Species/Cell Type: Rat primary hepatocytes, Assay Type: Unscheduled DNA synthesis (UDS) in vitro, DNA effects, Assay Code: UDP-, Evaluation Type: Evaluation A (Pre-1980)) “inactive; negative”; under setting [13], “no conclusion”.

With `CCN(N=O)C(N)=O`, the mutagenic call is “active; positive” (Species/Cell Type: Arabidopsis species, Assay Type: Gene mutation, Assay Code: ARM+D, Dose Response: With dose response, Evaluation Type: Evaluation A (Pre-1980)); “active; positive” (Species/Cell Type: Chinese hamster ovary (CHO) cells, Assay Type: Forward gene mutation at the HPRT locus, Assay Code: CHO+D, Dose Response: With dose response, Evaluation Type: Evaluation A (Pre-1980)); “active; positive” (Species/Cell Type: Drosophila melanogaster, Assay Type: Aneuploidy, partial sex chromosome loss, chromosome aberrations, Assay Code: DAP+M, Evaluation Type: Evaluation A (Pre-1980)); “active; positive” (Species/Cell Type: Drosophila melanogaster, Assay Type: Aneuploidy, whole sex chromosome loss, chromosome aberrations, Assay Code: DAC+M, Evaluation Type: Evaluation A (Pre-1980)); “active; positive” under setting [1]; “no conclusion” (Species/Cell Type: Drosophila melanogaster, Sex: Male, Assay Type: Heritable translocation test, chromosome aberrations, Assay Code: DHTT, Evaluation Type: Evaluation A (Pre-1980)). In addition, the mutagenic call is, setting by setting: under setting [2], “active; positive”; under setting [3], “active; positive”; under setting [4], “active; positive”; (Species/Cell Type: Hordeum vulgare (barley), Assay Type: Gene mutation, Assay Code: HOM+, Evaluation Type: Evaluation A (Pre-1980)) “active; positive”; (Species/Cell Type: Human diploid fibroblasts, Assay Type: Unscheduled DNA synthesis (UDS) in vitro, DNA effects, Assay Code: UDH+, Evaluation Type: Evaluation A (Pre-1980)) “active; positive”; (Species/Cell Type: Human lymphocytes or leukocytes, Assay Type: Chromosome aberrations in vitro, Assay Code: CY7+D, Dose Response: With dose response, Evaluation Type: Evaluation A (Pre-1980)) “active; positive”. Also, the mutagenic call is, setting by setting: (Species/Cell Type: Human, Assay Type: Sister-chromatid exchange (SCE) in vitro, Assay Code: SC1+, Evaluation Type: Evaluation A (Pre-1980)) “active; positive”; (Species/Cell Type: Mammalian polychromatic erythrocytes, Assay Type: Micronucleus test, chromosome aberrations, Assay Code: MNT+, Evaluation Type: Evaluation B (Post-1980)) “active; positive”; (Species/Cell Type: Mouse germ cells, Sex: Male, Assay Type: Unscheduled DNA synthesis (UDS) in vivo, DNA effects, Assay Code: UDT+, Evaluation Type: Evaluation A (Pre-1980)) “active; positive”; (Species/Cell Type: Mouse, Sex: Female, Assay Type: Spot test, gene mutation, Assay Code: MST+, Evaluation Type: Evaluation A (Pre-1980)) “active; positive”; (Species/Cell Type: Mouse, Sex: Male, Assay Type: Specific locus test, gene mutation, Assay Code: SLT+, Evaluation Type: Evaluation A (Pre-1980)) “active; positive”; under setting [5], “active; positive”. The mutagenic call was “active; positive” (Species/Cell Type: Nonhuman bone marrow, Assay Type: Chromosome aberrations, in vivo, Assay Code: CY#+, Evaluation Type: Evaluation A (Pre-1980)); “active; positive” under setting [7]; “active; positive” under setting [8]; “active; positive” under setting [9]; “active; positive” under setting [10]; “active; positive” under setting [11]. In addition, the mutagenic call by setting is: under setting [12], “active; positive”; (Species/Cell Type: Syrian hamster embryo (SHE) cells, Assay Type: Cell transformation, clonal assay, Assay Code: CTCT, Evaluation Type: Evaluation A (Pre-1980)) “no conclusion”; (Species/Cell Type: Vicia faba, Assay Type: Chromosome aberrations, Assay Code: VIC+, Evaluation Type: Evaluation A (Pre-1980)) “active; positive”; (Species/Cell Type: Zea mays (corn), Assay Type: Gene mutation, Assay Code: ZEM+D, Dose Response: With dose response, Evaluation Type: Evaluation A (Pre-1980)) “active; positive”. The call under setting [6] was “active; positive”.

As to `BrCCCCCBr`, the mutagenic call under setting [2] is “active; positive”.

`CCCCN(CC(O)CC)N=O` (stereo not given): the mutagenic call (Species/Cell Type: Salmonella typhimurium (one or more of the five standard strains: TA98, TA100, TA1535, TA1537, and TA1538), Assay Type: Histidine reverse gene mutation, Ames assay, Assay Code: SAL+*, Activation: With metabolic activation, Evaluation Type: Evaluation A (Pre-1980)) was “active; positive”.

Turning to `O=S(=O)(O)c1cc(-n2nc3ccc4ccccc4c3n2)ccc1/C=C/c1ccccc1`, the mutagenic call (Species/Cell Type: Rodents, Sex: Male, Assay Type: Dominant lethal test, Assay Code: DLT-, Evaluation Type: Evaluation A (Pre-1980)) is “inactive; negative”; the mutagenic call (Species/Cell Type: Saccharomyces cerevisiae, Assay Type: Mitotic recombination or gene conversion, Assay Code: YECT, Evaluation Type: Evaluation A (Pre-1980)) is “no conclusion”; the mutagenic call under setting [13] is reported as “no conclusion”.

The values above are taken from PubChem BioAssay AID1259408 (Genetic Toxicology Data Bank (GENE-TOX), 2018).
